“Also recorded” adds a separate entry of the source.
Tests used:
[1] = target: T1, PPAR alpha-LBD (Homo sapiens, UniProt Q07869); type: binding; conditions: sample final concentration 100 M (so in the source); compared with fenofibrate (positive control); FIG. 7
T1 construct: 10 μl of 4×PPAR alpha-LBD/Tb-anti-GST antibody
T1 sequence (Q07869 239-466 limits assumed): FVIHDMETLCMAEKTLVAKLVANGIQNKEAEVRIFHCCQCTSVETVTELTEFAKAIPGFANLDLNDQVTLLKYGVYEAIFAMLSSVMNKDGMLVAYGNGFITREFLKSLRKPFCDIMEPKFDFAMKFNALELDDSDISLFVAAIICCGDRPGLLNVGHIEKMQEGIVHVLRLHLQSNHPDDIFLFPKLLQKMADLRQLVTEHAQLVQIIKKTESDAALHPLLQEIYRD

[2] = target: T2, PPAR gamma-LBD (Homo sapiens, UniProt P37231); test: PPAR gamma assay (fluormone Pan-PPAR green competition, Tb-anti-GST antibody); type: binding; conditions: sample final concentration 100 M (so in the source); compared with rosiglitazone (positive control); FIG. 8
T2 construct: 10 μl of 4×PPAR gamma-LBD/Tb-anti-GST antibody
T2 sequence (P37231 238-503 limits assumed): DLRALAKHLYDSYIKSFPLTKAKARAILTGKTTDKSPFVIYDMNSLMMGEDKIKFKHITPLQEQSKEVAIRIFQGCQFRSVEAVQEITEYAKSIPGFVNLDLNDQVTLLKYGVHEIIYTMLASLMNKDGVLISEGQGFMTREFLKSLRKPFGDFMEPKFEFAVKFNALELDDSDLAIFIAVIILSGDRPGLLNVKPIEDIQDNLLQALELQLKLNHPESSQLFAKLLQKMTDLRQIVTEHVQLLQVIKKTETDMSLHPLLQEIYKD
Experimental: 20 μl of a sample and 10 μl of 4× fluormone Pan-PPAR green were spread onto 384 well plates, and 10 μl of 4×PPAR alpha-LBD/Tb-anti-GST antibody or 10 μl of 4×PPAR gamma-LBD/Tb-anti-GST antibody were respectively used in PPAR alpha assay and PPAR gamma assay. In this regard, a sample compound was dissolved in such an amount of DMSO that made a final concentration of the sample to be 100 µM, and the DMSO final concentration was maintained within 1%. The reaction mixture was left at room temperature for 2 to 6 hours, and then, the absorption thereof was measured by using a microplate reader (Hewlett Packard) at an excitation wavelength of 340 nm and at an emission wavelength of 485 nm, and at an exitation wavelength of 340 nm and an emission wavelength of 520 nm to calculate a value of 520 nm/485 nm. In this regard, if a negative control was assumed to have an absorption value of 100, a competitive activation rate was defined as follows: 100 minus an absorption value of each sample. That is, the competitive activation rate indicates a binding ratio of the respective samples with respect to the negative control. […]

Row | Structure (SMILES) | PPARα activities (competitive activation rate) [1] | PPARγ activities (competitive activation rate) [2]
1 | CC(=O)Oc1ccc(/C=C2\N=C(C)OC2=O)c(O)c1 [Compound 85, (Z)-3-hydroxy-4-((2-methyl-5-oxooxazol-4(5H)-ylidene)methyl)phenyl acetate] | very excellent PPARα activation agent compared to fenofibrate; also recorded: simultaneously activates PPARα and PPARγ | simultaneously activates PPARα and PPARγ
2 | CC1=N/C(=C\c2ccccc2O)C(=O)O1 [Compound 93, (Z)-4-(2-hydroxybenzylidene)-2-methyloxazol-5(4H)-one] | very excellent PPARα activation agent compared to fenofibrate; also recorded: simultaneously activates PPARα and PPARγ | simultaneously activates PPARα and PPARγ

From US9896421B2, “Compound having skin-whitening, anti-oxidizing and PPAR activities and medical use thereof” (Pusan National University Industry-University Cooperation …, priority 2011, dated 2018)
